Experiment [1] in a line: DRUGMATRIX: Calcium Channel Type L, Phenylalkylamine radioligand binding (ligand: [3H] (-)-Desmethoxyverapamil (D-888)). It counts as cell membranes, Rattus norvegicus, Wistar, Brain, Membrane. Conditions: Not Active = under 50% inhibition at 10 µM.
The target of another experiment is Melanocortin receptor 3 (Homo sapiens, UniProt P41968). Format: cell membranes, HEK293, Membrane. To be noted: hek293. Further: in other assays of this panel Not Active means under 50% inhibition at 10 µM.
Sequence of Melanocortin receptor 3 (P41968 whole entry): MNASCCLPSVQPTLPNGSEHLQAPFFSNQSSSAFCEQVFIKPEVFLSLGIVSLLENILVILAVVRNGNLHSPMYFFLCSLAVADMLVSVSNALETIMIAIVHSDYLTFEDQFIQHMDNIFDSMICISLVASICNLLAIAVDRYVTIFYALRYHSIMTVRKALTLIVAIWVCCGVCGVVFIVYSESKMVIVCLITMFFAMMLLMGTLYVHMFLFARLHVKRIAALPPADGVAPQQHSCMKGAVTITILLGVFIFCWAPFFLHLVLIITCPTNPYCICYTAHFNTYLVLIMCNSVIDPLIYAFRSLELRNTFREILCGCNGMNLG
Experiment [2] deals with T1, Type-2 angiotensin II receptor (Homo sapiens, UniProt P50052).
T1 sequence (P50052 whole entry): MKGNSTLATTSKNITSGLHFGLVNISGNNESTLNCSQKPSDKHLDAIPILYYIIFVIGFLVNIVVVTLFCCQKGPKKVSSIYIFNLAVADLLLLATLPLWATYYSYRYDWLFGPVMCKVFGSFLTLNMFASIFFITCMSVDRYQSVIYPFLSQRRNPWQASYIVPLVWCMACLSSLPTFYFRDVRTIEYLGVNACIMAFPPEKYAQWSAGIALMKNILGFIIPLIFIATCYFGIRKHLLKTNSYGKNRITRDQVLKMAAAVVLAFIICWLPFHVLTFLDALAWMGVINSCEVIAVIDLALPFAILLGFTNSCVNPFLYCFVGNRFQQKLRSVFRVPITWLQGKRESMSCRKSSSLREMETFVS
It counts as cell-based. To be noted: cho-k1.

The target in a further experiment is T2, Progesterone receptor (Bos taurus, UniProt Q690N0).
T2 sequence (Q690N0 whole entry): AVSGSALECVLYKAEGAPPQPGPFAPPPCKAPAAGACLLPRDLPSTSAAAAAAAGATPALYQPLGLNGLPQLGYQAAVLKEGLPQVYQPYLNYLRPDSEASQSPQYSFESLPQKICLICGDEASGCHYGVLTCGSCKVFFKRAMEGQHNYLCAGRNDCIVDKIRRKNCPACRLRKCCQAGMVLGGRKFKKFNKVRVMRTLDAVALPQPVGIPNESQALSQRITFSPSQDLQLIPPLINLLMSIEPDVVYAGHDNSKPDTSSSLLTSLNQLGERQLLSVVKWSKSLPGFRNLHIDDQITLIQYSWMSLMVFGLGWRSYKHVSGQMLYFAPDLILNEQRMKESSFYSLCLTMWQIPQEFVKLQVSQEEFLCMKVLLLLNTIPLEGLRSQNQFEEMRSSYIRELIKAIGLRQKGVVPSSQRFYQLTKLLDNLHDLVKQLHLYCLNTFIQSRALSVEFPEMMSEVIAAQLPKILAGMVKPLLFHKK
Kind of experiment: DRUGMATRIX: Progesterone radioligand binding (ligand: [3H] R-5020). Format: tissue-based, Uterus. Conditions: Not Active = under 50% inhibition at 10 µM.

Experiment [3] concerns the target Epidermal growth factor receptor (Homo sapiens, UniProt P00533). The experiment in a line: DRUGMATRIX: Protein Tyrosine Kinase, EGF Receptor enzyme inhibition (substrate: Poly(Glu:Tyr)). Conditions: insect cells; Not Active = under 50% inhibition at 10 µM. Format: cell-based, Insect cells.
For experiment [4], the target named is 5-hydroxytryptamine receptor 1B (Rattus norvegicus, UniProt P28564). Format: cell membranes, Wistar, Cerebral cortex, Membrane. Further: in other assays of this panel Not Active means under 50% inhibition at 10 µM.
Sequence of 5-hydroxytryptamine receptor 1B (P28564 whole entry): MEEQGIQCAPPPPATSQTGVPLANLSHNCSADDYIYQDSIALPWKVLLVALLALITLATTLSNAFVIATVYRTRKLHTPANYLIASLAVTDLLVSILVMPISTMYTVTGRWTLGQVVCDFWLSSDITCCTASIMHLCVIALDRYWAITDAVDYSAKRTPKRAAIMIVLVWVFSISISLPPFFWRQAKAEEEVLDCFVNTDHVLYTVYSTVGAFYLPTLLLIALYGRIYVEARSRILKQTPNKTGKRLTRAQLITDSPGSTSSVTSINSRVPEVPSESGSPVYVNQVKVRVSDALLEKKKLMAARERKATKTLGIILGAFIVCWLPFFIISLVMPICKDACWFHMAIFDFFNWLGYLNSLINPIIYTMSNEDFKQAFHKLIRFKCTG

Sequence of Epidermal growth factor receptor (P00533 whole entry): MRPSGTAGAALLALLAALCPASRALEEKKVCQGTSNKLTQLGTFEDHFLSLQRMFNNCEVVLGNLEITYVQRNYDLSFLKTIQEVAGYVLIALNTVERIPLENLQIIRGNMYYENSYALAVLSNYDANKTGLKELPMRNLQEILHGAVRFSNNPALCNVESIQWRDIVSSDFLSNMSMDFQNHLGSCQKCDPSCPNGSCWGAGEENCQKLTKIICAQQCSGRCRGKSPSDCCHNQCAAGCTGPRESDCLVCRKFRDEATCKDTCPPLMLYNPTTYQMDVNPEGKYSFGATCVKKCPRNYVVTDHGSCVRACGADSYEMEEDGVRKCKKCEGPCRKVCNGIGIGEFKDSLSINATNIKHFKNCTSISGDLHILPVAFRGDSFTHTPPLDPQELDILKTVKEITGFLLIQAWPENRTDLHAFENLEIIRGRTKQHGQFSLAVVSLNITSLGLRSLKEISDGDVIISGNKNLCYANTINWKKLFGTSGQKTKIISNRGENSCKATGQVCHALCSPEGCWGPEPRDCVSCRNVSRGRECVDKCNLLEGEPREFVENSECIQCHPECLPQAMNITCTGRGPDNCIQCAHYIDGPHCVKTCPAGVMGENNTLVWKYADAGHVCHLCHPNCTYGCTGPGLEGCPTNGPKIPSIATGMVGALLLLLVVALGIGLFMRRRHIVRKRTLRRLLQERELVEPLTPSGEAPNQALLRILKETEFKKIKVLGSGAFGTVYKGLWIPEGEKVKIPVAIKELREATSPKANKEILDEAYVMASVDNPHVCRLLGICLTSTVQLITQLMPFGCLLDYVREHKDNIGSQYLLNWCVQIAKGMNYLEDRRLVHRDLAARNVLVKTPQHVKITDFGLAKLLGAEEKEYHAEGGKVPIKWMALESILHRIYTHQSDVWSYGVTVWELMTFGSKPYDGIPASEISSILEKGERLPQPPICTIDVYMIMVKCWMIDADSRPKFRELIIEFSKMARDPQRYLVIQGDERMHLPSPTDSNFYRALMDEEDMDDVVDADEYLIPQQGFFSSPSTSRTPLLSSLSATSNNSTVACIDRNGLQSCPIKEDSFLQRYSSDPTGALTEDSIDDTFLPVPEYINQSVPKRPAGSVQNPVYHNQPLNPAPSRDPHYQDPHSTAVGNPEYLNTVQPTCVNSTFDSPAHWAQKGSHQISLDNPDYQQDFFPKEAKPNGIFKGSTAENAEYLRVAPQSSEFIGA

`CC1(C)S[C@@H]2[C@H](NC(=O)Cc3ccccc3)C(=O)N2[C@H]1C(=O)O` [PENICILLIN G]: the 50% inhibitory concentration (IC50) result (in experiment [1]; against Melanocortin receptor 3; in experiment [2]; on Progesterone receptor; in experiment [3]; in experiment [4]) was “Not Active” in each case. Further, in experiment [1], the Ki – broadly, the dissociation constant of the complex between target and ligand, obtained from inhibition or displacement – was “Not Active”.
In the case of `CCCCc1nc(Cl)c(CO)n1Cc1ccc(-c2ccccc2-c2nnn[nH]2)cc1` [LOSARTAN], the IC50 entry (in experiment [1]; against Melanocortin receptor 3; in experiment [2]; at Progesterone receptor; in experiment [3]; in experiment [4]) was “Not Active” in each case. The inhibition constant Ki entry in experiment [1] is recorded as “Not Active”.
In the case of `COc1cc2nc(N3CCN(C(=O)C4COc5ccccc5O4)CC3)nc(N)c2cc1OC` (stereo unspecified) [DOXAZOSIN], the 50% inhibitory concentration (IC50) result (in experiment [1]; on Melanocortin receptor 3; in experiment [2]; on Progesterone receptor; in experiment [3]; in experiment [4]) was “Not Active” each time. Besides, the Ki entry in experiment [1] is recorded as “Not Active”.
As for `CCCCN1CCCC[C@H]1C(=O)Nc1c(C)cccc1C` [LEVOBUPIVACAINE], the IC50 result (in experiment [1]; against Melanocortin receptor 3; in experiment [2]; on Progesterone receptor; in experiment [3]; in experiment [4]) was “Not Active” each time. Also, the Ki entry in experiment [1] is recorded as “Not Active”.
Turning to `Cc1onc(O)c1CC(N)C(=O)O` (racemic) [(R,S)-AMPA], the half-maximal inhibitory concentration (IC50) result (in experiment [1]; against Melanocortin receptor 3; in experiment [2]; at Progesterone receptor; in experiment [3]; in experiment [4]) was “Not Active” throughout. In addition, the inhibition constant (Ki) result in experiment [1] is recorded as “Not Active”.
As to `CC1CC(OC(=O)C(O)c2ccccc2)CC(C)(C)C1` (stereo unspecified) [CYCLANDELATE], the IC50 entry (in experiment [1]; on Melanocortin receptor 3; in experiment [2]; on Progesterone receptor; in experiment [3]; in experiment [4]) was “Not Active” throughout. Moreover, the Ki entry in experiment [1] is recorded as “Not Active”.
Consider `COCCc1ccc(OCC(O)CNC(C)C)cc1` (stereo unspecified) [METOPROLOL], for which the IC50 entry (in experiment [1]; on Melanocortin receptor 3; in experiment [2]; on Progesterone receptor; in experiment [3]; in experiment [4]) was “Not Active” in each case. Further, the inhibitory constant (Ki) result in experiment [1] is “Not Active”.
In the case of `Cc1ccc(-c2cc(C(F)(F)F)nn2-c2ccc(S(N)(=O)=O)cc2)cc1` [CELECOXIB], the half-maximal inhibitory concentration (IC50) (usually the midpoint of a concentration-inhibition curve) in experiment [1] is “Not Active”; against Melanocortin receptor 3, “Not Active”; in experiment [2] it was “Not Active”; at Progesterone receptor (read-out: IC50) it was 18.1 µM; in experiment [3], “Not Active”; in experiment [4] it was “Not Active”. Also, the Ki entry is “Not Active” in experiment [1] and 2.36 µM on Progesterone receptor (read-out: Ki).
With `c1ccc(Nc2ccc(Nc3ccccc3)cc2)cc1`, the IC50 entry (in experiment [1]; against Melanocortin receptor 3; in experiment [2]; at Progesterone receptor; in experiment [3]; in experiment [4]) was “Not Active” each time. Besides, the inhibitory constant (Ki) result in experiment [1] is listed as “Not Active”.
As to `Cc1onc(-c2ccccc2Cl)c1C(=O)N[C@@H]1C(=O)N2[C@@H]1SC(C)(C)[C@@H]2C(=O)O` [CLOXACILLIN], the half-maximal inhibitory concentration (IC50) entry (in experiment [1]; against Melanocortin receptor 3; in experiment [2]; on Progesterone receptor; in experiment [3]; in experiment [4]) was “Not Active” each time. The inhibition constant (Ki) entry in experiment [1] is “Not Active”.
Consider `CC1=C2C(=CO[C@H](C)[C@H]2C)C(O)=C(C(=O)O)C1=O` [CITRININ], for which the IC50 result (in experiment [1]; against Melanocortin receptor 3; in experiment [2]; at Progesterone receptor; in experiment [3]; in experiment [4]) was “Not Active” throughout. In addition, in experiment [1], the Ki entry was “Not Active”.
In the case of `CC(C)C(=O)Nc1ccc([N+](=O)[O-])c(C(F)(F)F)c1` [FLUTAMIDE], the IC50 result (in experiment [1]; at Melanocortin receptor 3; in experiment [2]; at Progesterone receptor; in experiment [3]; in experiment [4]) was “Not Active” each time. For the same molecule, the inhibition constant Ki result in experiment [1] was “Not Active”.
Consider `CC[C@@]1(O)C[C@H](O[C@H]2C[C@H](N(C)C)[C@H](O[C@H]3C[C@H](O)[C@H](O[C@H]4CCC(=O)[C@H](C)O4)[C@H](C)O3)[C@H](C)O2)c2c(cc3c(c2O)C(=O)c2c(O)cccc2C3=O)[C@H]1C(=O)OC` [ACLARUBICIN], for which the concentration for half-maximal inhibition (IC50) entry (in experiment [1]; against Melanocortin receptor 3; in experiment [2]; on Progesterone receptor; in experiment [3]; in experiment [4]) was “Not Active” throughout. Also, in experiment [1], the Ki entry was “Not Active”.
For the molecule `Nc1nc2c(ncn2CCC(CO)CO)c(=O)[nH]1` [PENCICLOVIR], the IC50 entry (in experiment [1]; at Melanocortin receptor 3; in experiment [2]; at Progesterone receptor; in experiment [3]; in experiment [4]) was “Not Active” throughout. In addition, in experiment [1], the Ki result is recorded as “Not Active”.
On to `O=c1oc2ccccc2c(O)c1Cc1c(O)c2ccccc2oc1=O` [DICUMAROL], for which the 50% inhibitory concentration (IC50) entry (in experiment [1]; at Melanocortin receptor 3; in experiment [2]; on Progesterone receptor; in experiment [3]; in experiment [4]) was “Not Active” throughout. Further, the Ki result in experiment [1] is “Not Active”.

Values taken from ChEMBL document CHEMBL1909046, “DrugMatrix in vitro pharmacology data”.
